Test results as given in patent US20250230193A1, “CYCLIC COMPOUND HAVING SELECTIVE KRAS INHIBITORY EFFECT ON HRAS AND NRAS” (CHUGAI SEIYAKU KABUSHIKI KAISHA, priority 2022, published 2025).
*1 amine or outer side, *2 acyl side, *3 side chain or, on linkers, in order; H or OH if unused. Where a SMILES comes first, the peptide text is derived from it. Bridges are numbered along the chain shown (N, C = ends). [ ]: non-standard residue; d: D form. The star is where a group is joined. hPhe(3,5-F2-4-CF3) = N[C@@H](CCc1cc(F)c(C(F)(F)F)c(F)c1)C(=O)O; hPhe(3-Cl-4-CF3) = N[C@@H](CCc1ccc(C(F)(F)F)c(Cl)c1)C(=O)O; NPrPhe(4-CF3) = CCCN[C@@H](Cc1ccc(C(F)(F)F)cc1)C(=O)O; X50 = C=CCN([C@@H](Cc1ccc(C)cc1)C(=O)[*:2])[*:1]; NMeAbu(4,4,4-F3) = CN[C@@H](CC(F)(F)F)C(=O)O; NMeGly(cPent) = CN[C@H](C(=O)O)C1CCCC1; NMeAllylGly = C=CC[C@H](NC)C(=O)O; NMeD = CN[C@@H](CC(=O)O)C(=O)O; NMeL = CN[C@@H](CC(C)C)C(=O)O; Morpholide = C1CN(*)CCO1; Ac5c = NC1(C(=O)O)CCCC1; Aze = O=C(O)[C@@H]1CCN1; Sar = CNCC(=O)O

Tests used:
[1] = biological target: GDP-bound NRAS wild-type protein (Homo sapiens, UniProt P01111); assay: Binding to NRAS by surface plasmon resonance (SPR), Single Cycle Kinetics; conditions: SPR; for NRAS/KRAS (ratio of KD value for GDP-bound NRAS wild-type protein to KD value for KRAS): KD ratio class
[2] = biological target: GDP-bound HRAS wild-type protein (Homo sapiens, UniProt P01112); assay: Binding to HRAS by surface plasmon resonance (SPR), Single Cycle Kinetics; conditions: SPR; for HRAS/KRAS (ratio of KD value for GDP-bound HRAS wild-type protein to KD value for KRAS): KD ratio class
[3] = KD ratio, GDP-bound NRAS wild-type vs GDP-bound KRAS wild-type
[4] = KD ratio, GDP-bound HRAS wild-type vs GDP-bound KRAS wild-type

GDP-bound NRAS wild-type protein, sequence (P01111 whole entry): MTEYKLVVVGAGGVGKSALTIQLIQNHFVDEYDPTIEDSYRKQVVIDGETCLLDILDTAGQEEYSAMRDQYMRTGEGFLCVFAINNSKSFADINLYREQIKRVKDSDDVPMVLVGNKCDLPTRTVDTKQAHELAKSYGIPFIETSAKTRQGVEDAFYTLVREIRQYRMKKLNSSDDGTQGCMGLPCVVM
GDP-bound HRAS wild-type protein, sequence (P01112 whole entry): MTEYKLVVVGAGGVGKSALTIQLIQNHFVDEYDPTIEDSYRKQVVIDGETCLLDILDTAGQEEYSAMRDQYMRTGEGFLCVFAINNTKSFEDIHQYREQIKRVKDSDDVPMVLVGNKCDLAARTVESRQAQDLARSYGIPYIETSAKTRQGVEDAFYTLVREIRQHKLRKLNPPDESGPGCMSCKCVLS

`CCCN1C(=O)CN(C)C(=O)[C@@H]2CCN2C(=O)[C@H]([C@@H](C)CC)NC(=O)[C@H](CC(C)C)N(C)C(=O)C[C@@H](C(=O)N(C)C)NC(=O)[C@H](C2CCCC2)N(C)C(=O)C2(CCCC2)NC(=O)[C@@H]2CCCN2C(=O)[C@H](CCc2ccc(C(F)(F)F)c(Cl)c2)NC(=O)CN(C)C(=O)[C@@H]1Cc1ccc(C(F)(F)F)cc1` [PP0373] ([NMeL]I[Aze][Sar][NPrPhe(4-CF3)][Sar][hPhe(3-Cl-4-CF3)]P[Ac5c][NMeGly(cPent)]D-NMe2; lactam N-11) was tested, and the “NRAS/KRAS (ratio of KD for GDP-bound NRAS wild-type to KD for KRAS)” value [1] was “B (a compound having 3 or more and less than 10 is denoted as B)” and the “HRAS/KRAS (ratio of KD for GDP-bound HRAS wild-type to KD for KRAS)” value [2] was “B (a compound having 3 or more and less than 10 is denoted as B)”.

With `C=CC[C@H]1C(=O)N(CC=C)[C@@H](Cc2ccc(C)cc2)C(=O)N(C)CC(=O)N[C@@H](CCc2ccc(C(F)(F)F)c(Cl)c2)C(=O)N2CCC[C@H]2C(=O)NC2(CCCC2)C(=O)N(C)[C@@H](C2CCCC2)C(=O)N(C)[C@H](C(=O)N2CCOCC2)CC(=O)N(C)[C@@H](CC(C)C)C(=O)N[C@@H]([C@@H](C)CC)C(=O)N(C)CC(=O)N1C` [PP0139] ([NMeL]I[Sar][NMeAllylGly][X50][Sar][hPhe(3-Cl-4-CF3)]P[Ac5c][NMeGly(cPent)][NMeD]-Morpholide; lactam N-11) the “NRAS/KRAS (ratio of KD for GDP-bound NRAS wild-type to KD for KRAS)” value [1] was “C (A compound having a KD ratio of 0.1 or more and less than 3 is denoted as C)” and the “HRAS/KRAS (ratio of KD for GDP-bound HRAS wild-type to KD for KRAS)” value [2] was “C (A compound having a KD ratio of 0.1 or more and less than 3 is denoted as C)”.

In the case of `CCO[C@@H]1C[C@H]2C(=O)NC3(CCC3)C(=O)N(C)[C@@H](C3CCCC3)C(=O)N(C)[C@H](C(=O)N3CCOCC3)CC(=O)N(C)C[C@@H](C)C(=O)N[C@@H]([C@@H](C)CC)C(=O)N(C)CC(=O)N(C)[C@H]3CCCCN(C3=O)[C@@H](Cc3ccc(C(F)(F)F)cc3)C(=O)N(C)CC(=O)N[C@@H](CCc3cc(F)c(C(F)(F)F)c(F)c3)C(=O)N2C1` [PP0721], the “NRAS/KRAS (ratio of KD value with respect to GDP-bound NRAS wild-type protein to KD value with respect to KRAS)” value [1] is reported as “B (a compound having 3 or more and less than 10 is denoted as B)” and the “HRAS/KRAS (ratio of KD value with respect to GDP-bound HRAS wild-type protein to KD value with respect to KRAS)” value [2] is reported as “B (a compound having 3 or more and less than 10 is denoted as B)”.

With `CCCN(C)C(=O)[C@@H]1CC(=O)N(C)[C@@H](CC2CC2)C(=O)N[C@@H]([C@@H](C)CC)C(=O)N(C)CC(=O)N(C)[C@H]2C/C=C\CCN(C2=O)[C@@H](Cc2ccc(C(F)(F)F)cc2)C(=O)N(C)CC(=O)N[C@@H](CCc2cc(F)c(C(F)(F)F)c(F)c2)C(=O)N2C[C@H](OCC)C[C@H]2C(=O)NC2(CCC2)C(=O)N(C)[C@@H](C2CCCC2)C(=O)N1C` [PP1388] the “NRAS/KRAS (ratio of KD value for GDP-bound NRAS wild-type protein to KD value for KRAS)” value [1] was “A (a compound having 10 or more and less than 20 is denoted as A)” and the “HRAS/KRAS (ratio of KD value for GDP-bound HRAS wild-type protein to KD value for KRAS)” value [2] was “B (a compound having 3 or more and less than 10 is denoted as B)”.

With `CCO[C@@H]1C[C@H]2C(=O)NC3(CCC3)C(=O)N(C)[C@@H](C(CC)CC)C(=O)N(C)[C@H](C(=O)N3CCCC3)CC(=O)N(C)[C@H]3CCC/C=C/c4ccc(cc4)C[C@@H](C(=O)N(C)CC(=O)N[C@@H](CCc4ccc(Cl)c(Cl)c4)C(=O)N2C1)N1CC/C=C\C[C@@H](C1=O)N(C)C(=O)CN(C1CC1)C(=O)[C@H]([C@@H](C)CC)NC3=O` [PP3040] the “NRAS/KRAS (ratio of KD value with respect to GDP-bound NRAS wild-type protein to KD value with respect to KRAS)” value ([1]; GDP-bound wild-type proteins) was “AA (a compound having 20 or more is denoted as AA)” and the “HRAS/KRAS (ratio of KD value with respect to GDP-bound HRAS wild-type protein to KD value with respect to KRAS)” value ([2]; GDP-bound wild-type proteins) was “A (a compound having 10 or more and less than 20 is denoted as A)”.

With `CCC[C@H]1C(=O)N[C@@H]([C@@H](C)CC)C(=O)N(C)CC(=O)N(C)[C@H]2C/C=C\CCN(C2=O)[C@@H](CC2CCC(F)(F)CC2)C(=O)N(C)CC(=O)N[C@@H](CCc2ccc(C(F)(F)F)c(OC)c2)C(=O)N2C[C@@H](C)C[C@H]2C(=O)NC2(CC(C)(C)C2)C(=O)N(C)[C@@H](C(CC)CC)C(=O)N(C)[C@H](C(=O)N(C)C)CC(=O)N1C` [PP2497] the “NRAS/KRAS (ratio of KD value with respect to NRAS to KD value with respect to KRAS)” value ([1]; GDP-bound NRAS wild-type vs GDP-bound KRAS wild-type) was “A (a compound having 10 or more and less than 20 is denoted as A)” and the “HRAS/KRAS (ratio of KD value with respect to HRAS to KD value with respect to KRAS)” value ([2]; GDP-bound HRAS wild-type vs GDP-bound KRAS wild-type) was “A (a compound having 10 or more and less than 20 is denoted as A)”.

For `CCCN1C(=O)CN(C)C(=O)CN(C)C(=O)[C@H]([C@@H](C)CC)NC(=O)[C@H](CC(C)C)N(C)C(=O)C[C@@H](C(=O)N2CCOCC2)N(C)C(=O)[C@H](CC(F)(F)F)N(C)C(=O)C2(CCCC2)NC(=O)[C@@H]2CCCN2C(=O)[C@H](CCc2cc(F)c(C(F)(F)F)c(F)c2)NC(=O)CN(C)C(=O)[C@@H]1Cc1ccc(C(F)(F)F)cc1` [PP0767] ([NMeL]I[Sar][Sar][NPrPhe(4-CF3)][Sar][hPhe(3,5-F2-4-CF3)]P[Ac5c][NMeAbu(4,4,4-F3)][NMeD]-Morpholide; lactam N-11), the “NRAS/KRAS (ratio of KD value with respect to GDP-bound NRAS wild-type protein to KD value with respect to KRAS)” value [1] was “B (a compound having 3 or more and less than 10 is denoted as B)” and the “HRAS/KRAS (ratio of KD value with respect to GDP-bound HRAS wild-type protein to KD value with respect to KRAS)” value [2] was “C (A compound having a KD ratio of 0.1 or more and less than 3 is denoted as C)”.

For `CCCN1C(=O)CN(C)C(=O)CN(C)C(=O)[C@H]([C@@H](C)CC)NC(=O)[C@@H]2CCCCCOc3ccc(cc3)C[C@H]1C(=O)N(C)CC(=O)N[C@@H](CCc1cc(F)c(C(F)(F)F)c(F)c1)C(=O)N1C[C@H](OCC)C[C@H]1C(=O)NC1(CCCC1)C(=O)N(C)[C@@H](C1CCCC1)C(=O)N(C)[C@H](C(=O)N(C)C)CC(=O)N2C` [PP0895], the “NRAS/KRAS (ratio of KD value with respect to NRAS to KD value with respect to KRAS)” value [1, 3] was “C (A compound having a KD ratio of 0.1 or more and less than 3 is denoted as C)” and the “HRAS/KRAS (ratio of KD value with respect to HRAS to KD value with respect to KRAS)” value [2, 4] was “C (A compound having a KD ratio of 0.1 or more and less than 3 is denoted as C)”.

With `CCO[C@@H]1C[C@H]2C(=O)NC3(CCC3)C(=O)N(C)[C@@H](C3CCCC3)C(=O)N(C)[C@H](C(=O)N(C)CCOC)CC(=O)N(C)[C@@H](CC3CC3)C(=O)N[C@@H]([C@@H](C)CC)C(=O)N(C)CC(=O)N(C)[C@H]3C/C=C\CCN(C3=O)[C@@H](Cc3ccc(C(F)(F)F)cc3)C(=O)N(C)CC(=O)N[C@@H](CCc3ccc4sccc4c3)C(=O)N2C1` [PP1328] the “NRAS/KRAS (ratio of KD value for GDP-bound NRAS wild-type protein to KD value for KRAS)” value [1] was “A (a compound having 10 or more and less than 20 is denoted as A)” and the “HRAS/KRAS (ratio of KD value for GDP-bound HRAS wild-type protein to KD value for KRAS)” value [2] was “A (a compound having 10 or more and less than 20 is denoted as A)”.

With `CCC[C@H]1C(=O)N[C@@H]([C@@H](C)CC)C(=O)N(C)CC(=O)N(C)[C@H]2C/C=C\CCN(C2=O)[C@@H](Cc2ccc(C)cc2)C(=O)N(C)CC(=O)N[C@@H](CCc2ccc(C(F)(F)F)c(OC)c2)C(=O)N2C[C@H](C)C[C@H]2C(=O)NC2(CC(C)(C)C2)C(=O)N(C)[C@@H](C2CCCC2)C(=O)N(C)[C@H](C(=O)N(C)C)CC(=O)N1C` [PP1890] the “NRAS/KRAS (ratio of KD value for NRAS to KD value for KRAS)” value [1, 3] was “A (a compound having 10 or more and less than 20 is denoted as A)” and the “HRAS/KRAS (ratio of KD value for HRAS to KD value for KRAS)” value [2, 4] was “B (a compound having 3 or more and less than 10 is denoted as B)”.
